Here are results for 1 substance from US20250027086A1, “COMPOSITIONS AND METHODS FOR TREATMENT OF CANCERS USING MODIFIED siRNA-GEM AGENTS” (Sirnaomics, Inc., priority 2022, published 2025).

One series has as its system MDA-MB231 cells. Nature of the series: Cell viability in triple negative breast cancer cell line MDA-MB231. The class given is cell-based. Particulars: MDA-MB231, 400 cells per well; FIG. 13(a). How it is done: (§1) MIA PaCa-2, […], LS180, HT1376, HT29, H358, H1299, OVCAR-3, HTB-9 and Panc 10.05 cells were obtained from ATCC (Rockville, MD). MiaPaCa cells were cultured in DMEM medium supplemented with 10% FBS. H358, H1299, HTB-9, N87 and Panc 10.05 cells were cultured in DMEM/10% FBS; LS180 and HT1376 in EMEM/10% FBS; HT29 cells in McCoy5A/10% FBS; OVCAR-3 cells were incubated in RPMI/20% FBS. All cells were maintained at 37 degrees C. in an atmosphere containing 5% CO^2.
(§2) The day before transfection, cells were seeded in a 384-well plate at an optimal density of between 300 and 800 cells/well. […]
(§3) Ninety-six hours following the addition of GEM or transfection mixtures, the number of viable cells was determined with CellTiter-Glo®-2.0 reagent (Promega, Madison, WI) by measuring luminescent signal using a Cytation 5 plate reader (BioTek Inc, Winooski, VT). […]
Using the same or similar experimental condition as are described above in Example 1, the effects of (i) PGN7 (SEQ. ID No. 9-10) plus a non-signaling oligonucleotide (“NS”), (ii) BCLxL #5 (SEQ. ID No. 14)+NS, and (iii) PGN7 and BCLxL #5 in combination were evaluated and are shown in triple negative breast cancer (MDA-MB231) and ovarian cancer (OVCAR3) cell lines in FIGS. 13 (a)-(b). […]

For series [1], the system named is HT1376, HTB-9, N87 and OVCAR-3 cell lines. Nature of the series: Cell viability in urinary bladder, gastric and ovarian cancer cell lines. The class given is cell-based. Particulars: HT1376, HTB-9, N87, OVCAR-3; FIGS. 9-10. How it is done:
as §1, §2, §3
Using the same or similar experimental condition as are described above in Example 1, the effects of PGN7 (SEQ. ID No. 9-10), Wee1 (SEQ. ID No. 13), BCLxL #5 (SEQ. ID No. 14) or the PGN7+Wee1, or PGN+BCLxL combinations were evaluated and are shown in HT1376 (400 cells/well) and HTB-9 (800 cells/well) urinary bladder cancer cell lines, N87 (600 cells/well) gastric cancer cell line, and OVCAR-3 (800 cells/well) ovarian cancer line in FIGS. 11 (a)-(d). […]

For series [2], the system named is pancreatic, lung and colon cancer cell lines. Nature of the series: Cell viability in pancreatic, lung and colon cancer cell lines. It is filed as cell-based. Particulars: single siRNA against non-silencing control; pancreatic, lung, colon; FIG. 6. How it is done:
as §1
(§4) The day before transfection, cells were seeded in a 384-well plate at an optimal density of between 300 and 800 cells/well. The next day, ten 3-fold serial dilutions of single, modified-backbone siRNAs or PGN6/PGN7 siRNA and Gemcitabine (GEM) mixed with siRNAs: Wee1 #7, KRAS #1, MCL1 #3 or DM2-P47 siRNAs at 1:1 ratio were prepared and combined with diluted Lipofectamine RNAiMAX (Life Technologies, Carlsbad, CA). Within 20 minutes, 10 μl of the transfection mixtures were added to the cells in a 40 μL medium. The final concentrations of siRNAs or Gemcitabine in the wells ranged from 100 nM to 0.002 nM.
(§5) Ninety-six hours following the addition of GEM or transfection mixtures, the number of viable cells was determined with CellTiter-Glo®-2.0 reagent (Promega, Madison, WI) by measuring luminescent signal using a Cytation 5 plate reader (BioTek Inc, Winooski, VT). The treatment group (n=4) mean (±SD) was compared to those of non-treated controls and were reported as relative cell viability.
Using the same experimental conditions as are described above in Example 1, the efficacy on cell viability was evaluated for PGN6 (SEQ. ID Nos. 7-8), with and without lipofentamine (“lipo”) in three types of cancer cell lines. FIG. 3 (a)-(c) show the effects of PGN6, with and without lipo on cell viability at increasing siRNA levels in pancreatic cancer cell lines. FIG. 4 (a)-(b) similarly show the effects of these variants on cell viability in lung cancer cell lines; FIG. 5 (a)-(b) show the effects of these variants on cell viability in colon cancer cell lines. All data are shown as mean±SD. […]
Using the same experimental conditions as are described above in Example 1, the efficacy of STD1 (SEQ. ID Nos. 1-2), PGN6 (SEQ. ID Nos. 7-8) and PGN7 (SEQ. ID Nos. 9-10) were evaluated in three types of cancer cell lines. […]
Using the same experimental conditions as are described above in Example 1, the efficacy of PGN7 (SEQ. ID No. 9-10) alone and its combination with WEE1 #7 (SEQ. ID No. 13) was evaluated in three types of cancer cell lines. […]
Using the same experimental conditions as are described above in Example 1, the efficacy of PGN7 (SEQ. ID No. 9-10) and the combination of BCLxL #5 (SEQ. ID No. 14) and PGN7 was evaluated in three types of cancer cell lines. […]

In another series the test system is MiaPaCa-2 cells. Nature of the series: Cell viability (CellTiter-Glo) in MiaPaCa-2 pancreatic cancer cells after transfection. The class given is cell-based, human. The note with it: in combination with lipofectamine; 96 h; n=4 (FIG. 2); read-out: IC50, MiaPaCa-2 cell viability. How it is done: as §1, §4, §5

For “PGN7: modified siRNA-GEM RNAi agent (SEQ. ID No. 9-10): sense 5′-AAGAAAgAgau[GEM]uGuAu[GEM]AAu-3′; antisense 5′-AuUGAuACAGAuCuCuUuCuU[GEM][GEM]dTdT-3′ (sense AAGAAAGAGATCTGTATCAAT; antisense ATTGATACAGATCTCTTTCTTCCTT; GEM modifications; 2'-modified bases; dTdT overhang; modified_base 1 OTHER; 2'-O-methyl modified nucleotide; modified_base 2 OTHER; modified_base 3 OTHER; modified_base 4 OTHER; modified_base 5 OTHER; modified_base 6 OTHER; modified_base 7 OTHER; 2'-fluoro modified nucleotide; modified_b; 2'-O-me)”, the 50% inhibitory concentration (IC50) with MDA-MB231 cells was found to be 1.1 nM; in the series with MiaPaCa-2 cells, 0.006 nM. Also, in series [1], the “efficacy on cell viability” value was “significant efficacy”. Further, the “reduction of cell viability” value in series [2] is recorded as “effective in reducing cell viability”.
